# According to patent publication US11691984B2, “Compounds and methods for DCAF-mediated protein degradation” (The Scripps Research Institute, priority 2018, dated 2023):
# Residues, ends and D or L forms follow the SMILES beside them. *: point of attachment. Cbz = O=C(OCc1ccccc1)*
# Tests used:
# FLAG-FKBP12_NLS [1] = target: T1, FLAG-FKBP12_NLS (Homo sapiens, UniProt P62942); test: Anti-FLAG western blot of stably expressed nuclear FKBP12 (FLAG-FKBP12_NLS) in HEK293T cells; assay type: cell-based; parameters: expressed in transfected cells; host or cells: HEK293T, MDA-MB-231 and HEK293 DCAF16+/+ and DCAF16-/- clones (lentiviral pCDH-CMV-MCS-EF1-Puro); settings: for effect of inhibitor on KB02-SLF-mediated loss of FKBP12_NLS: KB02-SLF 1 μM with MG132 10 μM or MLN4924 1 μM; for nuclear FKBP12 (FKBP12_NLS) protein level: 2 μM, 8 or 24 h
# Source text: (§1) FLAG-tagged variants of FKBP12 (FLAG-FKBP12) or (2) FKBP12 with a C-terminal nuclear localization sequence (FLAG-FKBP12_NLS) were then stably expressed in HEK293T cells to provide cell models for evaluating cytosolic- and nuclear-localized E3-mediated degradation pathways, respectively.
# (§2) FLAG-FKBP12 or FLAG-FKBP12_NLS lentivirus was generated by co-transfection of FLAG-FKBP12 or FLAG-FKBP12_NLS, pCMV-dR8.2 and pMD2.G into HEK 293T cells using FuGene 6 transfection reagent (Promega). Virus-containing medium were collected 48 h after transfection, filtered with […] filter, and used to transduce HEK293T and MDA-MB-231 cells in the presence of 10 μg/mL polybrene (Santa Cruz). 72 h after transduction, puromycin (2 μg/mL) was added to cells. HEK293T cells stably expressing FLAG-FKBP12 or FLAG-FKBP12_NLS were obtained after puromycin selection for 7 days. HEK293T cells stably expressing pCDH empty vector were generated in parallel as control.
# shRNA lentivirus was generated by co-transfection of shRNA-containing vector, pCMV-dR8.2 and pMD2.G into HEK 293T cells using FuGene 6 transfection reagent (Promega). Virus-containing medium were collected 48 h after transfection and used to transiently transduce HEK293T cells stably expressing FLAG-FKBP12_NLS for 48 h. Lentiviral shRNAs targeting human DCAF16 or DTL were in pLKO.1 vector and purchased from Sigma. The sequences of shRNAs is described below.
# (§3) Cells were collected and lysed in 1% NP-40 lysis buffer (25 mM Tris-HCl pH 7.4, 150 mM NaCl, 10% glycerol, 1% Nonidet P-40) with complete protease inhibitor cocktail (Roche). Cells were vortexed and sonicated for 5 pulses (40%, 4). The supernatant was collected after centrifugation at 16,000 g for 10 min at 4° C. Protein concentration was determined by DC assay (Bio-Rad). Protein lysate was heated at 95° C. for 5 min in 1× Laemmli sample buffer. Proteins were resolved by 12% or 14% Novex Tris-Glycine Mini Gels (Invitrogen) and transferred to polyvinylidene fluoride (PVDF) membrane (0.2 Bio-Rad). The membrane was blocked with 5% BSA in TBST buffer (0.1% Tween 20, 20 mM Tris-HCl 7.6, 150 mM NaCl) at room temperature for 1 h. The antibody was diluted with fresh 5% BSA in TBST buffer (1:10000 dilution for FLAG, HA and β-Actin, 1:1000 dilution for others) and incubated with membrane (1 h room temperature for FLAG, HA and β-Actin, overnight 4° C. for others). Membrane was washed three times with TBST buffer and incubated with secondary antibody (1:5000 dilution in 5% BSA in TBST) at room temperature for 1 h. Membrane was washed three times with TBST buffer. The chemiluminescence signal in membrane was recorded after developing in ECL or ECL plus western blotting detection reagent using CL-XPosure film (Thermo Scientific). Relative band intensities were quantified using ImageJ.
# FLAG-FKBP12_NLS [2] = target: T1, FLAG-FKBP12_NLS; test: Western blot of stably expressed FLAG-FKBP12_NLS in MDA-MB-231 cells; assay type: cell-based; parameters: expressed in transfected cells; host or cells: HEK293T, MDA-MB-231 and HEK293 DCAF16+/+ and DCAF16-/- clones (lentiviral pCDH-CMV-MCS-EF1-Puro); settings: 8 hours; for effect of inhibitor on degradation of FLAG-FKBP12_NLS in MDA-MB-231 cells: KB02-PEG0-SLF, KB02-SLF or KB02-PEG4-SLF 1 μM
# Experimental: as §2, §3
# BRD4 = target: T2, BRD4 (Homo sapiens, UniProt O60885); test: Western blot of endogenous BRD4 in HEK293T cells; assay type: cell-based; settings: 20 μM KB02-JQ1; 10 μM MG132 or 1 μM MLN4924
# T2 construct: degradation of endogenous BRD4 in HEK293T cells; endogenous in cells; host or cells: HEK293T (A10, A16); HEK293 DCAF16+/+ and DCAF16-/- clones (A11)
# Experimental: as §3
# [3] = target: T3, HA-DCAF16 and FLAG-FKBP12_NLS (Homo sapiens, UniProt P62942+Q9NXF7); test: Co-immunoprecipitation of HA-DCAF16 with FLAG-FKBP12_NLS (ternary complex) in HEK293T cells; assay type: cell-based; settings: 5 μM, MG132 10 μM, 2 hours
# T3 construct: expressed in transfected cells; host or cells: HEK293T stably expressing FLAG-FKBP12_NLS, transiently transfected with HA-DCAF16 (pRK5)
# Experimental: as §3
# Cells were collected and lysed in 1% NP-40 lysis buffer with complete protease inhibitor cocktail on ice for 10 min, followed by 5 pulses of sonication (40%, 4). After centrifugation at 16,000 g for 10 min at 4° C., the supernatant was collected. FLAG affinity gel (20 μL slurry per sample) was incubated with protein lysates at 4° C. for 1 h and washed four times with IP washing buffer. The affinity gel was heated at 95° C. for 10 min in 2× Laemmli sample buffer, followed by western blot analysis.
# FLAG-FKBP12 = target: T4, FLAG-FKBP12 (Homo sapiens, UniProt P62942); test: Anti-FLAG western blot of stably expressed cytosolic FKBP12 (FLAG-FKBP12) in HEK293T cells; assay type: cell-based; settings: lenalidomide-SLF positive control, 4 or 24 h
# T4 construct: expressed in transfected cells; host or cells: HEK293T (lentiviral transduction, puromycin selection)
# Source text: as §1
# as §2, with “HEK293T cells stably expressing pCDH empty vector were generated in parallel as control.” left out
# Cells were collected and lysed in 1% NP-40 lysis buffer (25 mM Tris-HCl pH 7.4, 150 mM NaCl, 10% glycerol, 1% Nonidet P-40) with complete protease inhibitor cocktail (Roche). […] Protein concentration was determined by DC assay (Bio-Rad). […] The chemiluminescence signal in membrane was recorded after developing in ECL or ECL plus western blotting detection reagent using CL-XPosure film (Thermo Scientific). Relative band intensities were quantified using ImageJ.
# HEK293T cells = test: Cell viability assay (Cell Titer Glo); assay type: cell-based, human; settings: 24 hours, read-out: cytotoxicity IC50
# Experimental: HEK293T cells were seeded in 96-well clear bottom white plate (Corning) at 3×10^4 cells per well in 100 μL of DMEM medium and grown for 24 h. The cells were treated with 0.625, 1.25, 2.5, 5, 10, 20 and 40 μM of KB02-SLF or KB02-JQ1 (DMSO stock, final DMEM concentration is 0.1% (v/v)) in 100 μL of DMEM medium for 24 h. 50 μL of Cell Titer Glo reagent (Promega) was added to each well and incubate for 10 min at room temperature. The luminescence was read on CLARIOstar (BMG LAB TECH).
# T3 sequence (Q9NXF7 whole entry): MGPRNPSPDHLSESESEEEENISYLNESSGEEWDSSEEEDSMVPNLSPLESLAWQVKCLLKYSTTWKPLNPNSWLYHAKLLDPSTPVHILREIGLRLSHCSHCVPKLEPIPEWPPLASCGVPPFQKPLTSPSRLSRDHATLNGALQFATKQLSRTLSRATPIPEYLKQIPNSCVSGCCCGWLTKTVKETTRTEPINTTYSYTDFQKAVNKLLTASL
# T3 sequence (P62942 2-108): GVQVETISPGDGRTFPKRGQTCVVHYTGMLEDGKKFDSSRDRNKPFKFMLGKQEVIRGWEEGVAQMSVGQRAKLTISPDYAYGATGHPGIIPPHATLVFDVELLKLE
# T3 sequence (Q16531 whole entry partner): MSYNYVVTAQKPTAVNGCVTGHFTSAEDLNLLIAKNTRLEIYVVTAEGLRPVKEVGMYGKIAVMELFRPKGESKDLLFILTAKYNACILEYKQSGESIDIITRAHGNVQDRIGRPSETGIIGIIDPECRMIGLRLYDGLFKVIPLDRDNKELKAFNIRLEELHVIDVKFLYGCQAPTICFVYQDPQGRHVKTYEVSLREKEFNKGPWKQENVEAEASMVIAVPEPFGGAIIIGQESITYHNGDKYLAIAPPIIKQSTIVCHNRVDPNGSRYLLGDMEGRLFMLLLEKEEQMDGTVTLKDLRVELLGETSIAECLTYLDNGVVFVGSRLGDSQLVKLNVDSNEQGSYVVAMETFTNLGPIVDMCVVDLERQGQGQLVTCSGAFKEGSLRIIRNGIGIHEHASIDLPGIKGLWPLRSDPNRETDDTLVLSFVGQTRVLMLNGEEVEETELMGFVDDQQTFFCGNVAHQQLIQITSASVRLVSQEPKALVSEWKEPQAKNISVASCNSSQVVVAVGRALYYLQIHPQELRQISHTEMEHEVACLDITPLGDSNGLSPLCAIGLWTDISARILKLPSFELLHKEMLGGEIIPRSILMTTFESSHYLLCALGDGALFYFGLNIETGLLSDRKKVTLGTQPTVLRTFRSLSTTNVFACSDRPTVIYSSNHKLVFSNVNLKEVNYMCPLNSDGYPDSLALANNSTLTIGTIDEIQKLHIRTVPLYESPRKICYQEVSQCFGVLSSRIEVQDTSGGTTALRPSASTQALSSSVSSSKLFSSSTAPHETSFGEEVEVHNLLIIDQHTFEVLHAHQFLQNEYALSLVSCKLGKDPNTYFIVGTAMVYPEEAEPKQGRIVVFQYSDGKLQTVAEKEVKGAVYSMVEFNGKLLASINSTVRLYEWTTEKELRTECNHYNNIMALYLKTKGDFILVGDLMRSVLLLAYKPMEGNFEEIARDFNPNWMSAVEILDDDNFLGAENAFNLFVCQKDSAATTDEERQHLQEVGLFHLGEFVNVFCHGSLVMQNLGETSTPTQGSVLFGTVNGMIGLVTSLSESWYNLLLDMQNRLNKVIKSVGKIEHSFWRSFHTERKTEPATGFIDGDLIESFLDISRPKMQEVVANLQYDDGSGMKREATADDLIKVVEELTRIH
# T1 sequence (P62942 whole entry): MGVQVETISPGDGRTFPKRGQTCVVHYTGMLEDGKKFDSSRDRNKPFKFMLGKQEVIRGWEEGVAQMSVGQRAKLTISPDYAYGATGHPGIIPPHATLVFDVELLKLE
# T4 sequence (P62942 whole entry): as above
structure (smiles),measurement,setting,value
"CC(C)C[C@@H](C=O)NC(=O)[C@H](CC(C)C)NC(=O)[C@H](CC(C)C)NC(=O)OCc1ccccc1 [MG132, reference compound] (Cbz-Leu-Leu-Leu-aldehyde)",effect of inhibitor on KB02-SLF-mediated loss of FKBP12_NLS,FLAG-FKBP12_NLS [1]; 8 h,blocked
same,effect of inhibitor on degradation of FLAG-FKBP12_NLS in MDA-MB-231 cells,FLAG-FKBP12_NLS [2],blocked
same,effect of inhibitor on KB02-JQ1-mediated BRD4 degradation,BRD4,blocked
"CCC(C)(C)C(=O)C(=O)N1CCCC[C@H]1C(=O)O[C@H](CCc1ccc(OC)c(OC)c1)c1cccc(NC(=O)CCOCCOCCOCCOCCNC(=O)COc2ccc3c(c2)CCCN3C(=O)CCl)c1 [KB02-PEG4-SLF, (R)-1-(3-(1-((1-(2-chloroacetyl)-1,2,3,4-tetrahydroquinolin-6-yl)oxy)-2-oxo-6,9,12,15-tetraoxa-3-azaoctadecan-18-amido)phenyl)-3-(3,4-dimethoxyphenyl)propyl (S)-1-(3,3-dimethyl-2-oxopentanoyl)piperidine-2-carboxylate]",degradation of FLAG-FKBP12_NLS in MDA-MB-231 cells,FLAG-FKBP12_NLS [2]; 1 μM,degradation of stably expressed FLAG-FKBP12_NLS
same,co-immunoprecipitation of HA-DCAF16 with FLAG-FKBP12_NLS,[3],co-immunoprecipitated with HA-DCAF16
"NS(=O)(=O)OC[C@@H]1C[C@@H](n2ccc3c(N[C@H]4CCc5ccccc54)ncnc32)C[C@@H]1O [MLN4924, reference compound]",effect of inhibitor on KB02-SLF-mediated loss of FKBP12_NLS,FLAG-FKBP12_NLS [1]; 8 h,blocked
same,effect of inhibitor on degradation of FLAG-FKBP12_NLS in MDA-MB-231 cells,FLAG-FKBP12_NLS [2],blocked
same,effect of inhibitor on KB02-JQ1-mediated BRD4 degradation,BRD4,blocked
"C=CC(=O)N(c1ccc(Br)cc1)c1ccc(C(=O)NCCOCCOCCOCCC(=O)Nc2cccc([C@@H](CCc3ccc(OC)c(OC)c3)OC(=O)[C@@H]3CCCCN3C(=O)C(=O)C(C)(C)CC)c2)cc1 [KB05-SLF, (R)-1-(3-(1-(4-(N-(4-bromophenyl)acrylamido)phenyl)-1-oxo-5,8,11-trioxa-2-azatetradecan-14-amido)phenyl)-3-(3,4-dimethoxyphenyl)propyl (S)-1-(3,3-dimethyl-2-oxopentanoyl)piperidine-2-carboxylate]",nuclear FKBP12 (FKBP12_NLS) protein level,FLAG-FKBP12_NLS [1]; HEK293T,did not support FKBP12_NLS degradation
same,co-immunoprecipitation of HA-DCAF16 with FLAG-FKBP12_NLS,[3],DCAF16 was not co-immunoprecipitated
"CCC(=O)N1CCCc2cc(OCC(=O)NCCOCCOCCC(=O)Nc3cccc([C@@H](CCc4ccc(OC)c(OC)c4)OC(=O)[C@@H]4CCCCN4C(=O)C(=O)C(C)(C)CC)c3)ccc21 [C-KB02-SLF, (R)-3-(3,4-dimethoxyphenyl)-1-(3-(3-(2-(2-(2-((1-propionyl-1,2,3,4-tetrahydroquinolin-6-yl)oxy)acetamido)ethoxy)ethoxy)propanamido)phenyl)propyl (S)-1-(3,3-dimethyl-2-oxopentanoyl)piperidine-2-carboxylate]",nuclear FKBP12 (FKBP12_NLS) protein level,FLAG-FKBP12_NLS [1]; HEK293T,Reductions in FKBP12_NLS were not observed
same,co-immunoprecipitation of HA-DCAF16 with FLAG-FKBP12_NLS,[3],DCAF16 was not co-immunoprecipitated
"CCC(C)(C)C(=O)C(=O)N1CCCC[C@H]1C(=O)O[C@H](CCc1ccc(OC)c(OC)c1)c1cccc(NC(=O)CCCC(=O)NCCCCC(=O)Nc2cccc3c2CN(C2CCC(=O)NC2=O)C3=O)c1 (stereo partly drawn) [lenalidomide-SLF, (1R)-3-(3,4-dimethoxyphenyl)-1-(3-(5-((5-((2-(2,6-dioxopiperidin-3-yl)-1-oxoisoindolin-4-yl)amino)-5-oxopentyl)amino)-5-oxopentanamido)phenyl)propyl (2S)-1-(3,3-dimethyl-2-oxopentanoyl)piperidine-2-carboxylate, reference compound]",nuclear FKBP12 degradation,"FLAG-FKBP12_NLS [1]; HEK293T, lenalidomide-SLF positive control, 4 or 24 h",degraded
same,cytosolic FKBP12 degradation,FLAG-FKBP12,degraded
"CCC(C)(C)C(=O)C(=O)N1CCCC[C@H]1C(=O)O[C@H](CCc1ccc(OC)c(OC)c1)c1cccc(NC(=O)CCOCCOCCNC(=O)CCNC(=O)c2cc(NC(=O)CCl)cc(C(F)(F)F)c2)c1 [KB03-SLF, (R)-1-(3-(1-(3-(2-chloroacetamido)-5-(trifluoromethyl)phenyl)-1,5-dioxo-9,12-dioxa-2,6-diazapentadecan-15-amido)phenyl)-3-(3,4-dimethoxyphenyl)propyl (S)-1-(3,3-dimethyl-2-oxopentanoyl)piperidine-2-carboxylate]",nuclear FKBP12 (FKBP12_NLS) protein level,FLAG-FKBP12_NLS [1]; HEK293T,did not support FKBP12_NLS degradation
same,co-immunoprecipitation of HA-DCAF16 with FLAG-FKBP12_NLS,[3],DCAF16 was not co-immunoprecipitated
"COc1ccc2c(c1)CCCN2C(=O)CCl [KB02, reference compound]",FKBP12_NLS level in cells treated with the separate components of KB02-SLF,"FLAG-FKBP12_NLS [1]; HEK293T, 1.5 μM, 8 h",FKBP12_NLS was not reduced
same,IC50,HEK293T cells,23 ± 1.2 µM
